What was measured:
[1] = tested on: primary human gastric cancer xenograft; experiment: Tumor growth in primary human gastric cancer xenograft model; type: in vivo, BALB/c nude mice; conditions: paclitaxel 15 mg/kg Q4D×3 i.p.; Compound A 12 mg/kg BID p.o.; not statistically different from vehicle
Method: (§1) Tumor tissues surgically removed from a patient with gastric cancer. Within 2 to 4 hours following patient surgery, small fragments of tumor (3×3×3 mm^3) were subcutaneously engrafted into the scapular area of anesthetized NOD/SCID mice. After tumors grew to around 300-1000 mm^3, tumors were surgically removed and fragments were passaged in NOD/SCID mice by subsequent engraftments. Engraftment in BALB/c nude mice was conducted after 3 successfully passages in NOD/SCID mice. The right axilla region of each BALB/C nude mouse was cleaned with 70% ethanol prior to tumor fragments inoculation. Each animal was implanted subcutaneously with a fragment (around 3×3×3 mm^3) of the gastric cancer in the right flank via 20-gauge trocar needle.
All doses were based on free-base weight.
After implantation, primary tumor volume was measured in two dimensions using a calliper. Tumor volume was calculated using the formula: V=0.5×(a×b^2) where a and b are the long and short diameters of the tumor, respectively. Tumor growth inhibition (TGI) was calculated using the following formula:
[formula] Statistical analysis was conducted using the student T-test. P<0.05 was considered statistically significant.

PARP1/2 = conditions: disclosed in WO2013/097225A1; cited from earlier work
[2] = Body weight and toxicity in primary human SCLC (extensive-stage) xenograft model; type: in vivo, BALB/c nude mice; conditions: cohort2, Compound B 5.45 mg/kg BID maintenance
Method: 47 days after implantation, animals bearing tumor were divided to two cohorts, cohort lused smaller tumors for combination setting and cohort 2 used bigger tumors for maintenance setting. In cohort1, animals with mean tumor size of ˜150 mm^3 were assigned into 6 groups with 9 mice per group using a stratified randomization procedure. Mice were then treated with vehicle (0.5% methylcellulose) twice daily (BID) or Compound B at 5.45 mg/kg BID for 21 days, or E/C [etoposide at 12 mg/kg (Day1-3)+carboplatin at 60 mg/kg (Day1) of a 7 day cycle] for 3 cycles then vehicle BID for 21 days (Day22-42), or the combination of E/C with Compound B at 0.68, 1.36 or 2.73 mg/kg BID (Day1-4 of the 7 day cycle) for 3 cycles then Compound B maintenance therapy at 5.45 mg/kg BID for 21 days (Day22-42). In cohort2, animals with mean tumor size of ˜400 mm^3 were treated with E/C for 3 cycles first. At day22, 20 animals were assigned into 2 groups with 10 mice per group using a stratified randomization procedure, then treated with vehicle (0.5% methylcellulose) twice daily (BID) for 21 days (Day22-42), or Compound B maintenance therapy at 5.45 mg/kg BID for 21 days (Day22-42). All doses were based on free-base weight.

[3] = tested on: Primary tumor cells from a patient with colorectal cancer cultured in Matrigel co-cultured with allogeneic human PBMCs; experiment: IFN-γ release in primary human tumor cells (Matrigel)/PBMC co-culture with EpCAM×CD3 bispecific T cell engager; type: cell-based; conditions: 50 ng/mL EpCAM×CD3 bispecific T cell engager, 72 hours; Compound B 30 nM, Mab-1 1 μg/mL; treatment group divided by control group
Method: After signed the informed consent, healthy human donor's blood was collected and PBMCs were isolated with Ficoll (GE Healthcare, 17-1440-02) according to the manufacturer's protocol with small modification. Briefly, fresh blood was diluted with equivalent volume of 1×DPBS (Gibco®, 14190-144), added equivalent volume of Ficoll into a 50 mL sterile tube, and added diluted blood very carefully onto the surface of the Ficoll. Then centrifuged at 400 g for 40 minutes at room temperature. Carefully removed the upper layer and pipetted the lymphocyte layer to a clean sterile tube, added 3 volumes of 1×DPBS and centrifuge at 200 g for 10 minutes at room temperature. After discarded the supernatant, suspended cells with 10 mL 1×DPBS and washed 2 times more. Suspended cells with 5 mL RPMI-1640 (Gibco®, 22400-089) complete medium (added with 10% fetal bovine serum (Gibco®, 10099-141). […]
Primary tumor cells from a patient with colorectal cancer cultured in Matrigel® were co-cultured with non pre-activated allogeneic human PBMCs, with 50 ng/ml EpCAM×CD3 bispecific T cell engager and with or without an PARP inhibitor named Compound B (30 nM) or an anti-PD-1 antibody named Mab-1 (1 μg/mL), or their combination (named as Mab-1+ Compound B, for short), and cultured for 72 hours. Human IFN-γ in the supernatant of the co-culture system was measured and as the readout (See FIG. 4). […]

[4] = Particle size distribution of crystalline sesqui-hydrate; type: physicochemical
Method: Compound A-Crude 2 (5.3 Kg) was mixed with a solution of isopropanol (41.6 Kg) and water (15.9 Kg). The mixture was degassed and re-protected under nitrogen and then heated to 60° C. and stirred for 2-4 h until the solid was dissolved completely. The temperature was raised to 70-80° C. and water (143 Kg) was added. The resulting mixture was heated to the internal temperature of 70-80° C. and then the heating was stopped but stirred gently for 16 h. The precipitate was filtered, washed with water (19 Kg) and slurred with water (21 kg) for 2 h. The resulting solid was filtered, washed with water (20 Kg). The filtered solid was dried at the temperature below 45° C. for 24-36 h. Compound A sesqui-hydrate (4.22 kg) was obtained with particle sizes of D90=51.51 um, D50=18.62 um, D10=7.63 um. This range of PSD is almost ideal for formulation development.

[5] = tested on: primary human SCLC (extensive-stage) xenograft; experiment: Tumor growth in primary human SCLC (extensive-stage) xenograft model; type: in vivo, BALB/c nude mice; conditions: cohort2, E/C 3 cycles then Compound B 5.45 mg/kg BID for 21 days
Method: as §1, with “extensive-stage SCLC.” for “gastric cancer.”, “biopsy, the” for “surgery, small fragments of”, “samples” for “(3×3×3 mm^3)”, “lung” for “gastric”
47 days after implantation, animals bearing tumor were divided to two cohorts, cohort lused smaller tumors for combination setting and cohort 2 used bigger tumors for maintenance setting. In cohort1, animals with mean tumor size of ˜150 mm^3 were assigned into 6 groups with 9 mice per group using a stratified randomization procedure. […]
After implantation, primary tumor volume was measured in two dimensions using a caliper. Tumor volume was calculated using the formula: V=0.5×(a×b^2) where a and b are the long and short diameters of the tumor, respectively. […]
Tumor growth inhibition (TGI) was calculated using the following formula: […]

Compound	tumor growth inhibition (TGI) on day 21, single agent [1]	PARP1/2 inhibitory activities (PARP1/2)	body weight change during the maintenance phase compared to the E/C treatment group [2]	fold changes of IFN-γ [3]	particle size D10 [4]	particle size D50 [4]	particle size D90 [4]	mean tumor volume after maintenance [5]
C[C@]12CCCN1CC1=NNC(=O)c3cc(F)cc4[nH]c2c1c34 [Compound A, (R)-2-fluoro-10a-methyl-7,8,9,10,10a,11-hexahydro-5,6,7a,11-tetraazacyclohepta[def]cyclopenta[a]fluoren-4(5H)-one]	30%	highly selective and potent	–	–	–	–	–	–
C[C@]12CCCN1CC1=NNC(=O)c3cc(F)cc4[nH]c2c1c34 [Compound B, (R)-2-fluoro-10a-methyl-7,8,9,10,10a,11-hexahydro-5,6,7a,11-tetraazacyclohepta[def]cyclopenta[a]fluoren-4(5H)-one sesqui-hydrate]	–	–	no significant body weight change	1.08	7.63 um	18.62 um	51.51 um	571 mm^3
CC(=O)O[C@H]1C(=O)[C@@]2(C)[C@H]([C@H](OC(=O)c3ccccc3)[C@]3(O)C[C@H](OC(=O)[C@H](O)[C@@H](NC(=O)c4ccccc4)c4ccccc4)C(C)=C1C3(C)C)[C@]1(OC(C)=O)CO[C@@H]1C[C@@H]2O [paclitaxel, reference compound]	31%	–	–	–	–	–	–	–
